Experiments:
[1] = target: T1, Rat Striatal Nicotinic Receptors (Rattus norvegicus, UniProt P09483+P12390); assay: Inhibition of [3H]Nicotine (NIC) binding assay, rat striatal membranes; conditions: % inhibition at 100 nM concentration of analog, 3 nM [3H]NIC
T1 construct: from tissue; host or cells: rat striatal membranes
Procedure: Striata from two rats were dissected, pooled, and homogenized with a Tekmar polytron in 10 vol of ice-cold modified Krebs-HEPES buffer (20 mM HEPES, 118 mM NaCl, 4.8 mM, KCl, 2.5 mM CaCl2, 1.2 mM MgSO4, adjusted to pH 7.5). The homogenates were incubated at 37° C. for 5 minutes and centrifuged at 15,000 g for 20 minutes. The pellet was resuspended in 10 volumes of ice-cold MilliQ water, incubated for 5 minutes at 37° C., and centrifuged at 15,000 g for 20 minutes. The second pellet was then resuspended in 10 volumes of fresh ice-cold 10% Krebs-HEPES buffer, incubated at 37° C., and centrifuged at 15,000 g for 20 minutes. The latter sequence of resuspension, incubation and centrifugation was repeated. The pellet was frozen under fresh 10% Krebs-HEPES buffer and stored at −40° C. until assay. Upon assay, the pellet was resuspended in Krebs-HEPES buffer, incubated at 37° C. for 5 minutes, and centrifuged at 15,000 g for 20 minutes. The final pellet was resuspended in 3.6 mL ice-cold MilliQ water which provided for approximately 200 μg protein per 100 μL aliquot. Competition assays were performed in duplicate in a final volume of 200 μL Krebs-HEPES buffer containing […] Tris buffer (pH 7.5 at 4° C.). Reactions were initiated by addition of 100 μL of membrane suspension to 3 nM [^3H]NIC (50 μL) and one of at least nine concentrations of analog (50 μL). After a 90 minute incubation at 4° C., reactions were terminated by dilution of the samples with 3 mL of ice-cold Krebs-HEPES buffer followed immediately by filtration through Whatman GF/B glass fiber filters (presoaked in 0.5% polyethyleneimine) using a Brandel Cell Harvester. Filters were rinsed three times with 3 mL of ice-cold Krebs-HEPES buffer, transferred to scintillation vials, and 5 mL scintillation cocktail (Research Products international Corp., Mt. Prospect, Ill.) added. Nonspecific binding determined in triplicate was defined as binding in the presence of 10 μM NIC. Binding parameters were determined using the weighted, least squares non-linear regression. The tris-quaternary ammonium salts were evaluated for their ability to displace [^3H]NIC binding from rat striatal membranes.
Data are % inhibition at 100 nM concentration of analog for at least 1-3 independent experiments. Specific binding in the [^3H]NIC binding assay is calculated at the difference between the total binding of [^3H]NIC and nonspecific binding in the presence of 10 μM cold nicotine. Specific binding for the [^3H]MLA binding assay is calculated as the difference between the total binding of 2.5 nM [^3H]MLA to the receptors alone and its nonspecific binding in the presence of 1 μM cold MLA. Analog-induced inhibition of nicotine-evoked [^3H]DA release is calculated as a percent of that in the absence of analog.

[2] = target: T2, α7 nicotinic receptor subtype expressed in Xenopus oocytes (Rattus norvegicus, UniProt Q05941); assay: Inhibition of ACh evoked current through nicotinic receptors expressed in Xenopus oocytes (α7); assay type: cell-based; conditions: co-application with acetylcholine; compared with α4β2, α3β2, α3β4; FIGS. 1-3
T2 construct: expressed in transfected cells; host or cells: Xenopus laevis oocytes injected with subunit cRNA
T2 sequence (Q05941 23-502): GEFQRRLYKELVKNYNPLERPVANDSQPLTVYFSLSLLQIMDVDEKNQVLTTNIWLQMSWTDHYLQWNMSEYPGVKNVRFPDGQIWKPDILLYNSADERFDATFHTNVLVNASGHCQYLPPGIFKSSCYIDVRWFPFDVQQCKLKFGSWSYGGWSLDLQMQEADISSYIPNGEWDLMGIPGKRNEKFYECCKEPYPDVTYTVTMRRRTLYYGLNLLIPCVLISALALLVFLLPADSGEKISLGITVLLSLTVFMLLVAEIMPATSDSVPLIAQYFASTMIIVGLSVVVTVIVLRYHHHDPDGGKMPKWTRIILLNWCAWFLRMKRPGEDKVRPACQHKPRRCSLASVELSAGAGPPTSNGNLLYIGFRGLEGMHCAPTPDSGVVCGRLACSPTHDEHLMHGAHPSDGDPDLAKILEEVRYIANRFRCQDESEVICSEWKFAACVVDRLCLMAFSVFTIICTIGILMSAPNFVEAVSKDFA
Procedure: Rat nicotinic receptor cDNAs clones were linearized and purified, and RNA transcripts were prepared in vitro using the appropriate mMessage mMachine kit. Mature (>9 cm) female Xenopus laevis African toads (Nasco, Ft. Atkinson, Wis.), housed in the Division of Lab Animal Resources at the University of Florida were used as a source of oocytes. Prior to surgery, frogs were anesthetized by placing the animal in a 1.5 g/L solution of MS222 for 30 minutes. Oocytes were removed from an incision made in the abdomen. In order to remove the follicular cell layer, harvested oocytes were treated with 1.25 mg/mL collagenase for 2 hours at room temperature in calcium-free Barth's solution (88 mM NaCl, 1 mM KCl, 2.38 mM NaHCO3, 0.82 mM MgSO4, 15 mM HEPES, pH 7.6, 0.1 mg/mL gentamicin sulfate). Subsequently, stage 5 oocytes were isolated and injected with 5-20 ng in 50 nL each of the appropriate subunit cRNAs. Recordings were made 2 to 15 days after injection.
Electrophysiology experiments were conducted using OpusXpress 6000A (Axon instruments, Union City, Calif.), or manual oocyte two-electrode voltage-clamp systems as previously reported (Stokes et al., 2004). […]
(§1) Each oocyte received two initial control applications of ACh, then a nicotine or analog application, and then a follow-up control application of ACh. […] Responses to each nicotine or analog application were calculated relative to the preceding ACh control responses in order to normalize the data, compensating for the varying levels of channel expression among the oocytes. […] Responses for α7 receptors were calculated as net charge (Papke et al., 2002). For subtypes other than α7, responses were calculated from the peak current amplitudes. Means and standard errors (SEM) were calculated from the normalized responses of at least four oocytes for each drug concentration. […]
(§2) For concentration-response relations, data derived from net-charge analyses were plotted using Kaleidagraph 3.0.2 (Abelbeck Software; Reading, Pa.) and curves were generated from the Hill equation […]

[3] = target: T3, α3β4 nicotinic receptor subtype expressed in Xenopus oocytes (Rattus norvegicus, UniProt P04757+P12392); assay: Inhibition of ACh evoked current through nicotinic receptors expressed in Xenopus oocytes (α3β4); assay type: cell-based; conditions: co-application with acetylcholine; FIG. 2
T3 construct: expressed in transfected cells; host or cells: Xenopus laevis oocytes injected with subunit cRNAs
T3 sequence (P12392 21-495): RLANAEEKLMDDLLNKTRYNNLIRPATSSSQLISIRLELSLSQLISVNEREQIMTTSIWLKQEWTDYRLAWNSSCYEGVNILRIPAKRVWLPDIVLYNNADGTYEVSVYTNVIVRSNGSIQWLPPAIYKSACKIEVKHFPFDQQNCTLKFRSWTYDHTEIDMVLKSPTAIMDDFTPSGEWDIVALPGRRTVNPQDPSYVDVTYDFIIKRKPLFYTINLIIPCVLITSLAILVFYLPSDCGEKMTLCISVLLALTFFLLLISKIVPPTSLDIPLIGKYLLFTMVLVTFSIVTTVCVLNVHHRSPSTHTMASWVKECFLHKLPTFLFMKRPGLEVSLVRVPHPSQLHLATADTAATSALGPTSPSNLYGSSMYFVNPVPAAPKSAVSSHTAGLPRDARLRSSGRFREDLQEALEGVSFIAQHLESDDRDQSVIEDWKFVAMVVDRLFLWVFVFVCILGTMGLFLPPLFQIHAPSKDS
T3 sequence (P04757 26-499): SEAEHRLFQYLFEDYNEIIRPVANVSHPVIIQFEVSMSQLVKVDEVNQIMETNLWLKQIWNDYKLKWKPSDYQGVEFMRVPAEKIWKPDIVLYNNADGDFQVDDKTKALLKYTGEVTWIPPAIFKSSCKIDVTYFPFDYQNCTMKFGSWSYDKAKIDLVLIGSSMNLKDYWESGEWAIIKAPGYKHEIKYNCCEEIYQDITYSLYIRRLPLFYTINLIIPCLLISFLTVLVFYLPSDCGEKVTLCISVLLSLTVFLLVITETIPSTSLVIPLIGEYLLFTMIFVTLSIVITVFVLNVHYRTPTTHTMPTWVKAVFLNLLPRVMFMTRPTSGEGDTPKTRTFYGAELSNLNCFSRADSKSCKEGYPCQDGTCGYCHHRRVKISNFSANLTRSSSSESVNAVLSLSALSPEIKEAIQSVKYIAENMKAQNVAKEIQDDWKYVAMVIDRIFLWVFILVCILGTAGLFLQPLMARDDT
Procedure: Rat nicotinic receptor cDNAs clones were linearized and purified, and RNA transcripts were prepared in vitro using the appropriate mMessage mMachine kit. Mature (>9 cm) female Xenopus laevis African toads (Nasco, Ft. Atkinson, Wis.), housed in the Division of Lab Animal Resources at the University of Florida were used as a source of oocytes. Prior to surgery, frogs were anesthetized by placing the animal in a 1.5 g/L solution of MS222 for 30 minutes. Oocytes were removed from an incision made in the abdomen. […]
as §1, §2

T1 sequence (P09483 31-630): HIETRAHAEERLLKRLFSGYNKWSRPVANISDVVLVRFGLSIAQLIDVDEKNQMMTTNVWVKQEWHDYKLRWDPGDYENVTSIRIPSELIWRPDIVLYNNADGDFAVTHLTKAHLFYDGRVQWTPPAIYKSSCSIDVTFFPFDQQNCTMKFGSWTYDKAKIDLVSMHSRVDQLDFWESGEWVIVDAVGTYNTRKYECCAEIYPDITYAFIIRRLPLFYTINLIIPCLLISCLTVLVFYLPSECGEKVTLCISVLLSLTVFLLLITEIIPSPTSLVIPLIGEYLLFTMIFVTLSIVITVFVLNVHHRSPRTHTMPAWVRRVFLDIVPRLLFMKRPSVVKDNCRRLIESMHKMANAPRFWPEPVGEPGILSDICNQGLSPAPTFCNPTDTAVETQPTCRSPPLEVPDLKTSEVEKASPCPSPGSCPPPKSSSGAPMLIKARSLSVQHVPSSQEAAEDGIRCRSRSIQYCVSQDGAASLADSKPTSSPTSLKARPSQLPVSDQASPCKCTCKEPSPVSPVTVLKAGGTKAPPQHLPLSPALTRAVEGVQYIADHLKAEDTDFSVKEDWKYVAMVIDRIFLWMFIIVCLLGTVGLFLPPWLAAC
T1 sequence (P12390 25-500): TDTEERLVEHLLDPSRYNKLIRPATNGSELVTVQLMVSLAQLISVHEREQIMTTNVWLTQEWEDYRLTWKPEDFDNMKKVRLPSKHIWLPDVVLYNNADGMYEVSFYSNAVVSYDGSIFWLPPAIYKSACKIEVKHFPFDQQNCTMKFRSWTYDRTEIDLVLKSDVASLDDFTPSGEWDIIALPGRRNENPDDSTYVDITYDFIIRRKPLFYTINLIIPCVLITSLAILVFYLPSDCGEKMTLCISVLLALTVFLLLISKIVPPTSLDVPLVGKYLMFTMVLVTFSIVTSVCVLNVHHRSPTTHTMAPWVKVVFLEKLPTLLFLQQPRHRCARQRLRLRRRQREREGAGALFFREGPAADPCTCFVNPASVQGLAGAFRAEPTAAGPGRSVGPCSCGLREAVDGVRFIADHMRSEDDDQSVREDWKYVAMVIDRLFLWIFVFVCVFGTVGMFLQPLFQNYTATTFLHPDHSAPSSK

SMILES | inhibition at 0.1 µM [1] | inhibition of ACh response at α7 nicotinic receptor subtype (concentration-response, in words) [2] | inhibition of ACh response at α3β4 nicotinic receptor subtype (in words) [3]
CCCCc1ccc[n+](CCCC#Cc2cc(C#CCCC[n+]3cccc(CCCC)c3)cc(C#CCCC[n+]3cccc(CCCC)c3)c2)c1 [GZ551A, 1,3,5-tris-[5-(3-butyl-pyridinium)-pent-1-ynyl]-benzene tribromide] | 6.8 ± 2% | potent and selective inhibitor | –
CN1CCC[C@H]1c1ccc[n+](CCCCCc2cc(CCCCC[n+]3cccc([C@@H]4CCCN4C)c3)cc(CCCCC[n+]3cccc([C@@H]4CCCN4C)c3)c2)c1 [GZ558C, 1,3,5-tris-{5-[3-(1-methyl-2-S-pyrrolidinyl)pyridinium]-pentyl}-benzene tribromide] | 81 ± 2.3% | potent and selective inhibitor | –
CN1CCC[C@H]1c1ccc[n+](CCCC#Cc2cc(C#CCCC[n+]3cccc([C@@H]4CCCN4C)c3)cc(C#CCCC[n+]3cccc([C@@H]4CCCN4C)c3)c2)c1 [GZ551B, 1,3,5-tris-{5-[3-(1-methyl-2-S-pyrrolidinyl)pyridinium]-pent-1-ynyl}-benzene tribromide] | 44 ± 3.1% | most potent as an inhibitor of the α7 nicotinic receptor subtype, but was not selective | potently inhibited

From patent publication US8940774B2, “Tris-Quaternary Ammonium Salts and Methods for Modulating Neuronal Nicotinic Acetylcholine Receptors” (University of Kentucky Research Foundation, priority 2005, dated 2015)
